The values that follow come from patent US9717727B2, “Methods of treating and preventing leukemia and other cancers of the blood and bone” (The Trustees of Columbia University in the City of New York, priority 2011, dated 2017).

For one assay, the system named is serotonin. Particulars: six consecutive doses, cited from earlier work.
The next assay relates to EL4 cells. As to the kind of experiment: Injection of EL4 cells pre-treated with LP-533401 or serotonin into syngeneic mice (Example 13). Type of assay: in vivo. To be noted: cells treated before injection; LP-533401 0.1 to 1-fold serum concentration, serotonin 25 to 100 μM. The method, then: (§1) EL4 cells and WEH-3B cells, as described in Example 2, were treated with either LP-533401 or serotonin LP-533401 treatments were performed at 0.1 to 1-fold the amount equivalent to the LP-533401 serum concentration in mice treated with this compound. Serotonin was given at concentrations ranging from 25 to 100 μM, doses at which it affects the proliferation of cells expressing serotonin receptors (Kode et al. (2012); Yadav et al. (2008) Serafeim et al. (2003)).
EL4 cells treated with LP-533401 or serotonin were then injected into syngeneic mice as described in Example 2 to monitor leukemia engraftment, as commonly described for evaluating potential direct effects of compounds on leukemia cells (Moellering et al. (2009)).

The test system of assay [1] is myeloid or the lymphoblastic leukemia cells. As to the kind of experiment: Serotonin treatment of leukemia cells, proliferation or survival. Type of assay: cell-based. The method, then:
as §1

Entries after “also recorded” stand apart in the source; their conditions may differ. Like-named read-outs stand apart in the source and are kept apart here.

With `CCOC(=O)[C@@H](N)Cc1ccc(-c2cc(OC(c3ccc(-c4cccc(F)c4)cc3)C(F)(F)F)nc(N)n2)cc1` (some centres unmarked) [LP-615819], the “serotonin levels in the small intestine lowered” value is recorded as 55% with serotonin (30 mg/kg twice per day) and 70% with serotonin (90 mg/kg twice per day). For the same compound, in the assay on serotonin (30 or 90 mg/kg twice per day), the brain-derived serotonin entry was “unchanged”.
Take `NCCc1c[nH]c2ccc(O)cc12` [serotonin, 5-hydroxytryptamine]: the “leukemia outcome (burden and lethality) after injection of pre-treated EL4 cells” value in the assay on EL4 cells is listed as “neither implantation of serotonin-treated leukemia cells affected leukemia progression; also recorded: neither of the two treatments altered leukemia outcome”. Moreover, the “proliferation or survival of leukemia cells” value in assay [1] is “no effect”.
